{
  "source": "patent US4324796A",
  "about": "“Substituted oxiranecarboxylic acids, their use and medicaments containing them” (BYK Gulden Lomberg Chemische Fabrik Gesellschaft mit …, priority 1979, dated 1982)",
  "key": {"[1]": {"test_system": "blood glucose concentration", "assay": "Blood glucose lowering after single oral administration, fasting metabolically healthy rats;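 as to all read-outs here: young male Sprague-Dawley rats fasted 18 h, blood glucose sampled before dosing and at 3 and 5 h afterwards, compared with a solvent-treated control group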", "settings": "for ED50 (15%): dose which effects a lowering of the blood glucose concentration by 15% in 50% of the animals: Table II, rats p.o., α-methylenecarboxylic acid intermediates; for ED50: Rattus norvegicus, po, 5 h"}, "[2]": {"test_system": "blood glucose concentration", "settings": "guinea pig, in vivo, po; cited from earlier work"}, "guinea pig": {"test_system": "guinea pig", "settings": "Table III; guinea pig p.o.; cited according to Proske et al. 1962; cited from earlier work"}, "[3]": {"test_system": "blood glucose concentration", "assay": "Blood glucose lowering after single oral administration, fasting metabolically healthy guinea pigs", "format": "in vivo, guinea pigs (young cross-bred male)", "settings": "Cavia porcellus"}, "[4]": {"assay": "Acute toxicity, guinea pig, peroral", "settings": "in vivo, po; Table III; guinea pig p.o.; preliminary results", "description": "Column C provides data relating to acute toxicity (LD50; guinea pig, peroral administration)."}, "[5]": {"test_system": "blood glucose concentration", "settings": "rat, in vivo, po, 300 min"}, "in vivo": {"assay": "in vivo", "settings": "mouse, po, Table I, mice p.o., 7 days observation, read-out: LD50 (acute toxicity)", "description": "2. Determination of the toxicity\nVarious doses of the substances (volume: 10 ml/kg) are administered orally by means of a stomach tube. The observation time is 7 days."}, "[6]": {"settings": "read-out: ED50 (15%): dose which effects a lowering of the blood glucose concentration by at least 15% in 50% of the animals"}, "[7]": {"settings": "read-out: ED50 (25%): dose which effects a lowering of the blood glucose concentration by at least 25% in 50% of the animals"}, "[8]": {"settings": "5 h, read-out: ED50 (15%): dose which effects a lowering of the blood glucose concentration by at least 15% in 50% of the animals"}, "[9]": {"settings": "5 h, read-out: ED50 (25%): dose which effects a lowering of the blood glucose concentration by at least 25% in 50% of the animals"}, "[10]": {"settings": "Table III B, guinea pig p.o., single dose, 5 hours, vs control group, read-out: ED50 (15%): dose which effects a lowering of the blood glucose concentration by at least 15% in 50% of the animals"}},
  "note": "Where two headings read alike, the source gives them in different places.",
  "data": [
    {"compound": "Sodium 2-(3-phenylpropyl)oxirane-2-carboxylate [Example 14]", "values": [
      {"measurement": "ED50 (15%): dose which effects a lowering of the blood glucose concentration by 15% in 50% of the animals", "setting": "[1]", "value": "> 253", "unit": "mg/kg"}
    ]},
    {"compound": "CCCCNC(=N)NC(=N)N", "note": "[Serial No. 1, Buformin, reference compound]", "values": [
      {"measurement": "ED50 (25%): dose which effects a lowering of the blood glucose concentration by 25% in 50% of the animals", "setting": "[2]", "value": "40 to 50", "unit": "mg/kg"},
      {"measurement": "LD50 (acute toxicity)", "setting": "guinea pig", "value": 58, "unit": "mg/kg"},
      {"measurement": "ED50", "setting": "[1]; [6]", "value": "> 100", "unit": "mg/kg"},
      {"measurement": "ED50", "setting": "[1]; [7]", "value": 194, "unit": "mg/kg"}
    ]},
    {"compound": "O=C([O-])C1(CCCc2cccc(C(F)(F)F)c2)CO1.[Na+]", "note": "(stereo not drawn)", "values": [
      {"measurement": "ED50", "setting": "[3]; [8]", "value": 6, "unit": "mg/kg"},
      {"measurement": "ED50", "setting": "[3]; [9]", "value": 11, "unit": "mg/kg"},
      {"measurement": "LD50", "setting": "[4]", "value": "300 to 400", "unit": "mg/kg"},
      {"measurement": "ED50", "setting": "[1]; [6]", "value": 14, "unit": "mg/kg"},
      {"measurement": "ED50", "setting": "[1]; [7]", "value": 23, "unit": "mg/kg"}
    ]},
    {"compound": "CCOC(=O)C1(CCCc2cccc(Cl)c2)CO1", "note": "(stereo not drawn) [Serial No. 12, 2-[3-(3-Chlorophenyl)propyl]oxirane-2-carboxylic acid ethyl ester]", "values": [
      {"measurement": "ED50", "setting": "[1]; [6]", "value": 59, "unit": "mg/kg"}
    ]},
    {"compound": "O=C([O-])C1(CCCc2ccc(Cl)cc2)CO1.[Na+]", "note": "(stereo not drawn)", "values": [
      {"measurement": "ED50", "setting": "[3]; [8]", "value": 12, "unit": "mg/kg"},
      {"measurement": "ED50", "setting": "[3]; [9]", "value": 26, "unit": "mg/kg"},
      {"measurement": "LD50", "setting": "[4]", "value": "500 to 600", "unit": "mg/kg"},
      {"measurement": "ED50", "setting": "[1]; [6]", "value": 20, "unit": "mg/kg"},
      {"measurement": "ED50", "setting": "[1]; [7]", "value": 41, "unit": "mg/kg"}
    ]},
    {"compound": "O=C([O-])C1(CCCCCc2ccc(Cl)cc2)CO1.[Na+]", "note": "(stereo not drawn)", "values": [
      {"measurement": "ED50", "setting": "[3]; [8]", "value": 3, "unit": "mg/kg"},
      {"measurement": "ED50", "setting": "[3]; [9]", "value": 8, "unit": "mg/kg"},
      {"measurement": "LD50", "setting": "[4]", "value": "300 to 400", "unit": "mg/kg"},
      {"measurement": "ED50", "setting": "[1]; [6]", "value": 5, "unit": "mg/kg"},
      {"measurement": "ED50", "setting": "[1]; [7]", "value": 16, "unit": "mg/kg"}
    ]},
    {"compound": "O=C([O-])C1(CCCCCc2ccccc2)CO1.[Na+]", "note": "(stereo not drawn)", "values": [
      {"measurement": "ED50", "setting": "[3]; [8]", "value": 3, "unit": "mg/kg"},
      {"measurement": "ED50", "setting": "[3]; [9]", "value": 7, "unit": "mg/kg"},
      {"measurement": "LD50", "setting": "[4]", "value": "500 to 600", "unit": "mg/kg"},
      {"measurement": "ED50", "setting": "[1]; [6]", "value": 2, "unit": "mg/kg"},
      {"measurement": "ED50", "setting": "[1]; [7]", "value": 12, "unit": "mg/kg"}
    ]},
    {"compound": "CCOC(=O)C1(CCCCc2ccccc2)CO1", "note": "(stereo not drawn) [Serial No. 11, 2-(4-Phenylbutyl)oxirane-2-carboxylic acid ethyl ester]", "values": [
      {"measurement": "ED50", "setting": "[1]; [6]", "value": 67, "unit": "mg/kg"}
    ]},
    {"compound": "2-Benzyloxirane-2-carboxylic acid ethyl ester [Example 15]", "values": [
      {"measurement": "ED50 (15%): dose which effects a lowering of the blood glucose concentration by 15% in 50% of the animals", "setting": "[1]", "value": 80, "unit": "mg/kg"}
    ]},
    {"compound": "[H]/N=C(/N)N/C(=N/[H])NCCc1ccccc1", "note": "[Serial No. 2, Phenformin, reference compound]", "values": [
      {"measurement": "ED50", "setting": "[2]", "value": "20 to 25", "unit": "mg/kg"},
      {"measurement": "ED50", "setting": "[1]; [6]", "value": "> 150", "unit": "mg/kg"},
      {"measurement": "ED50", "setting": "[1]; [7]", "value": "> 343", "unit": "mg/kg"}
    ]},
    {"compound": "CCOC(=O)C1(CCCCCc2ccccc2)CO1", "note": "(stereo not drawn) [Serial No. 7, 2-(5-Phenylpentyl)oxirane-2-carboxylic acid ethyl ester]", "values": [
      {"measurement": "ED50", "setting": "[3]; [10]", "value": 11, "unit": "mg/kg"},
      {"measurement": "ED50", "setting": "[5]", "value": 21, "unit": "mg/kg"},
      {"measurement": "LD50", "setting": "in vivo", "value": 230, "unit": "mg/kg"},
      {"measurement": "ED50", "setting": "[1]; [6]", "value": 10, "unit": "mg/kg"}
    ]},
    {"compound": "CCOC(=O)C1(CCCc2cccc(C(F)(F)F)c2)CO1", "note": "(stereo not drawn) [Serial No. 5, 2-[3-(3-Trifluoromethylphenyl)propyl]oxirane-2-carboxylic acid ethyl ester]", "values": [
      {"measurement": "ED50", "setting": "[3]; [10]", "value": 3, "unit": "mg/kg"},
      {"measurement": "LD50", "setting": "in vivo", "value": "~300", "unit": "mg/kg"},
      {"measurement": "ED50", "setting": "[1]; [6]", "value": 6, "unit": "mg/kg"},
      {"measurement": "ED50", "setting": "[1]; [7]", "value": 24, "unit": "mg/kg"}
    ]},
    {"compound": "2-(3-Phenylpropyl)oxirane-2-carboxylic acid methyl ester [Example 13]", "values": [
      {"measurement": "ED50 (15%): dose which effects a lowering of the blood glucose concentration by 15% in 50% of the animals", "setting": "[1]", "value": 252, "unit": "mg/kg"}
    ]},
    {"compound": "CCOC(=O)C1(CCCCCc2ccc(Cl)cc2)CO1", "note": "(stereo not drawn) [Serial No. 9, 2-[5-(4-Chlorophenyl)pentyl]oxirane-2-carboxylic acid ethyl ester]", "values": [
      {"measurement": "ED50", "setting": "[3]; [10]", "value": 5, "unit": "mg/kg"},
      {"measurement": "LD50", "setting": "in vivo", "value": 275, "unit": "mg/kg"},
      {"measurement": "ED50", "setting": "[1]; [6]", "value": 3, "unit": "mg/kg"},
      {"measurement": "ED50", "setting": "[1]; [7]", "value": 24, "unit": "mg/kg"}
    ]},
    {"compound": "CCOC(=O)C1(CCCc2ccc(Cl)cc2)CO1", "note": "(stereo not drawn) [Serial No. 3, 2-[3-(4-Chlorophenyl)propyl]oxirane-2-carboxylic acid ethyl ester]", "values": [
      {"measurement": "ED50", "setting": "[3]; [10]", "value": 11, "unit": "mg/kg"},
      {"measurement": "LD50", "setting": "in vivo", "value": 730, "unit": "mg/kg"},
      {"measurement": "ED50", "setting": "[1]; [6]", "value": 40, "unit": "mg/kg"},
      {"measurement": "ED50", "setting": "[1]; [7]", "value": 54, "unit": "mg/kg"}
    ]}
  ]
}
